US9101620B2, “Polymorph of 3-(substituteddihydroisoindolinone-2-yl)-2,6-dioxopiperidine, and pharmaceutical compositions thereof” (Nanjing Cavendish Bio-Engineering Technology Co., Ltd., priority 2009, dated 2015)
“Also recorded” adds a separate entry of the source.

Tests used:
Type in all cases: physicochemical
[1] = Solubility test according to Chinese Pharmacopoeia Edition 2005; settings: for Dissolving status: within 30 minutes
Protocol: Test was performed according to the Examples of Chinese Pharmacopoeia Edition 2005. Method: a definite quantity of the Polymorph I of 3-(4-amino-1-oxo-1,3-dihydro-2H-isoindole-2-yl)-piperidine-2,6-dione (hemihydrate) measured accurately was added into a certain quantity of solvent slowly, while the mixture was shaken strongly for 30 seconds every 5 minutes and the dissolving status within 30 minutes was observed. Results were listed in Tab. 1.
(§1) Test was performed according to the Examples of Chinese Pharmacopoeia Edition 2005. Method: a definite quantity of the (acetonitrile) solvated Polymorph II of 3-(4-amino-1-oxo-1,3-dihydro-2H-isoindole-2-yl)-piperidine-2,6-dione measured accurately was added into a certain quantity of solvent slowly, while the mixture was shaken strongly for 30 seconds every 5 minutes and the dissolving status within 30 minutes was observed. Results were listed in Tab. 61.
as §1, with “(acetone)” for “(acetonitrile)”, “polymorph III” for “Polymorph II”, “slowly” for “slowly,”, “11.” for “61.”

[2] = High temperature test (60° C.); settings: for Appearance / Content / Related substance: 60° C.; for Variation of appearance and content (in words): high temperature (60° C.) test, summary
Excerpt: (§2) The conditions and methods of related substance test involved in this invention were in accordance with HPLC (Appendix VD of Chinese Pharmacopoeia Edition 2005).
(§3) Chromatographic conditions and system applicability: octadecylsilane bonded silica as the filler; 0.01 mol/L of potassium dihydrogen phosphate (adjusted to pH 3.5 by phosphoric acid)-methanol-acetonitrile (80:15:5) as the mobile phase; detection wavelength was 240 nm; the number of theoretical plates should be not less than 2000, calculated according to the peak of 3-(4-amino-1-oxo-1,3-dihydro-2H-isoindole-2-yl)-piperidine-2,6-dione. The resolution of the peak of 3-(4-amino-1-oxo-1,3-dihydro-2H-isoindole-2-yl)-piperidine-2,6-dione from the peaks of adjacent impurities should meet requirements.
The raw material of Polymorph I of 3-(4-amino-1-oxo-1,3-dihydro-2H-isoindole-2-yl)-piperidine-2,6-dione (hemihydrate) was put into a clean sealed glass bottle and then put in thermostatic drying chamber at 60° C. Sample was tested at the 5th and 10th day respectively and the results were contrasted with that of the Day 0. Results were listed in Tab. 3. After high temperature test of 60° C. for 10 days, the X-ray powder diffraction pattern was shown FIG. 7; DSC diagram was in FIG. 8.
(§4) The raw material of Polymorph II of 3-(4-amino-1-oxo-1,3-dihydro-2H-isoindole-2-yl)-piperidine-2,6-dione was put into a clean sealed glass bottle and then put in thermostatic drying chamber at 60° C. Sample was tested at the 5th and 10th day respectively and the results were contrasted with that of the Day 0. Results were listed in Tab. 8. After high temperature test of 60° C. for 10 days, the X-ray powder diffraction pattern was shown in FIG. 18; DSC diagram was in FIG. 19.
as §4, with “III” for “II”, “13.” for “8.”, “29;” for “18;”, “30.” for “19.”

[3] = Photostability test (strong illumination); settings: for Appearance / Content / Related substance: 4500±500 Lx; for Variation of appearance and content (in words): photostability (illumination) test, summary
Excerpt: as §2, §3
The Polymorph I of 3-(4-amino-1-oxo-1,3-dihydro-2H-isoindole-2-yl)-piperidine-2,6-dione (hemihydrate) was distributed homogeneously in open petri dish with the thickness of the raw material not more than 5 mm, and the distance was adjusted to make illumination intensity at 4500±500 Lx. Sample was tested at the 5th and 10th day respectively and the results were contrasted with that of the Day 0. Results were listed in Tab. 2. After strong illumination for 10 days, the X-ray powder diffraction pattern was shown in FIG. 5; DSC diagram of the Polymorph I of 3-(4-amino-1-oxo-1,3-dihydro-2H-isoindole-2-yl)-piperidine-2,6-dione (hemihydrate) was in FIG. 6.
(§5) The Polymorph II of 3-(4-amino-1-oxo-1,3-dihydro-2H-isoindole-2-yl)-piperidine-2,6-dione was distributed homogeneously in open petri dish with the thickness of the raw material not more than 5 mm and the distance was adjusted to make illumination intensity at 4500±500 Lx. Sample was tested at the 5th and 10th day respectively and the results were contrasted with that of the Day 0. Results were listed in Tab. 7. After strong illumination for 10 days, the X-ray powder diffraction pattern was shown in FIG. 16; DSC diagram was in FIG. 17
as §5, with “III” for “II”, “12.” for “7.”, “27;” for “16;”, “28” for “17”

[4] = Observation test of long-term sample storage (crystal transformation); settings: long-term sample storage in high humidity; DSC scanning

## Nc1cccc2c1CN(C1CCC(=O)NC1=O)C2=O (single isomer, unassigned) [Polymorph II, 3-(4-amino-1-oxo-1,3-dihydro-2H-isoindole-2-yl)-piperidine-2,6-dione]
[1]; 0.1 mol/L HCl solution
  Conclusion (solubility): sparingly soluble
  Dissolving status: fully
[1]; 0.1 mol/L NaOH solution
  Conclusion (solubility): slightly soluble
  Dissolving status: fully
[1]; DMF (N,N-dimethylformamide)
  Conclusion (solubility): freely soluble
[1]; DMF
  Dissolving status: fully
[1]; DMSO (dimethylsulfoxide)
  Conclusion (solubility): freely soluble
[1]; DMSO
  Dissolving status: fully
[1]; acetic acid
  Conclusion (solubility): sparingly soluble
  Dissolving status: fully
[1]; acetone
  Conclusion (solubility): slightly soluble
  Dissolving status: fully
[1]; acetonitrile
  Conclusion (solubility): slightly soluble
  Dissolving status: fully
[1]; ethanol
  Conclusion (solubility): very slightly soluble
  Dissolving status: fully
[1]; ethyl acetate
  Conclusion (solubility): very slightly soluble
  Dissolving status: fully
[1]; methanol
  Conclusion (solubility): very slightly soluble
  Dissolving status: fully
[1]; water
  Conclusion (solubility): nearly insoluble; also recorded: practically
  Dissolving status: cannot fully
[2]; 0 days
  Appearance: Off-white powder
  Content: 99.89%
  Related substance: 0.09%
[2]; 5 days
  Appearance: Off-white powder
  Content: 99.86%
  Related substance: 0.09%
[2]; 10 days
  Appearance: Off-white powder
  Content: 99.87%
  Related substance: 0.10%
[2]
  Variation of appearance and content (in words): few significant variation
[3]; 0 days
  Appearance: off-white powder
  Content: 99.89%
  Related substance: 0.09%
[3]; 5 days
  Appearance: off-white powder
  Content: 99.89%
  Related substance: 0.09%
[3]; 10 days
  Appearance: off-white powder
  Content: 99.88%
  Related substance: 0.09%
[3]
  Variation of appearance and content (in words): few significant variation
[4]
  Crystal transformation: a small amount of Polymorph II had transformed to Polymorph I

## Nc1cccc2c1CN(C1CCC(=O)NC1=O)C2=O (single isomer, unassigned) [Polymorph I, 3-(4-amino-1-oxo-1,3-dihydro-2H-isoindole-2-yl)-piperidine-2,6-dione]
[1]; 0.1 mol/L HCl solution
  Conclusion (solubility): slightly
  Dissolving status: fully
[1]; 0.1 mol/L HCl solution, listed as Polymorph 1
  Conclusion (solubility): slightly soluble
[1]; 0.1 mol/L NaOH solution
  Conclusion (solubility): sparingly
  Dissolving status: fully
[1]; 0.1 mol/L NaOH solution, listed as Polymorph 1
  Conclusion (solubility): sparingly soluble
[1]; DMF (N,N-dimethylformamide), listed as Polymorph 1
  Conclusion (solubility): soluble
[1]; DMF
  Dissolving status: fully
[1]; DMSO (dimethylsulfoxide)
  Conclusion (solubility): freely
[1]; DMSO (dimethylsulfoxide), listed as Polymorph 1
  Conclusion (solubility): freely soluble
[1]; DMSO
  Dissolving status: fully
[1]; acetic acid, listed as Polymorph 1
  Conclusion (solubility): soluble
[1]; acetic acid
  Dissolving status: fully
[1]; acetone
  Conclusion (solubility): slightly
  Dissolving status: fully
[1]; acetone, listed as Polymorph 1
  Conclusion (solubility): slightly soluble
[1]; acetonitrile
  Conclusion (solubility): slightly
  Dissolving status: fully
[1]; acetonitrile, listed as Polymorph 1
  Conclusion (solubility): slightly soluble
[1]; ethanol
  Conclusion (solubility): very slightly
  Dissolving status: fully
[1]; ethanol, listed as Polymorph 1
  Conclusion (solubility): very slightly soluble
[1]; ethyl acetate
  Conclusion (solubility): very slightly
  Dissolving status: fully
[1]; ethyl acetate, listed as Polymorph 1
  Conclusion (solubility): very slightly soluble
[1]; methanol
  Conclusion (solubility): slightly
  Dissolving status: fully
[1]; methanol, listed as Polymorph 1
  Conclusion (solubility): slightly soluble
[1]; water
  Conclusion (solubility): very slightly
  Dissolving status: fully
[1]; water, listed as Polymorph 1
  Conclusion (solubility): very slightly soluble
[2]; 0 days
  Appearance: off-white powder
  Content: 99.87%
  Related substance: 0.05%
[2]; 5 days
  Appearance: off-white powder
  Content: 99.86%
  Related substance: 0.05%
[2]; 10 days
  Appearance: off-white powder
  Content: 99.84%
  Related substance: 0.06%
[2]
  Variation of appearance and content (in words): few significant variation
[3]; 0 days
  Appearance: off-white powder
  Content: 99.87%
  Related substance: 0.05%
[3]; 5 days
  Appearance: off-white powder
  Content: 99.85%
  Related substance: 0.05%
[3]; 10 days
  Appearance: off-white powder
  Content: 99.86%
  Related substance: 0.05%
[3]
  Variation of appearance and content (in words): few significant variation
